Patent US20220324909A1, “THERAPEUTIC PEPTIDES” (COHBAR, INC., priority 2019, published 2022)
Non-standard residues stand in square brackets, D forms with d. No end group written: not given here.

Tests used:
[1] = test system: C2C12 cells; assay: ATP levels in cultured C2C12 cells (CellTiter-Glo); assay type: cell-based, mouse; settings: peptide 10 μM, 3 days with readdition every 24 hours, relative to 0.1% DMSO control
Protocol: The effect of the peptides on cellular metabolism can be assessed using an assay of ATP levels in cultured cells such as mouse myoblast cells. Peptides were initially prepared as 10 mM stock in DMSO, diluted to 1 mM in H2O, and used at a final concentration of 10 μM (0.1% DMSO). […] Lovastatin was prepared as 10 mM stock in 70% Ethanol and used at final concentration of 10 μM containing 0.1% DMSO. CellTiter-Glo® Assay kit was purchased from Promega (Madison, Wis.). […] C2C12 cells were grown in DMEM medium supplemented with 20% FBS with 100 IU/ml penicillin and 100 μg/ml streptomycin. […] C2C12 cells were seeded at 800 cells per well on 96-well plates. […] ATP levels were determined using a CellTiter-Glo Assay kit according to the manufacturer's instructions. Luminescence for each sample well on the plate was measured using a Cytation 3 plate reader (BioTek, Winooski, Vt.). Activity was calculated relative to 0.1% DMSO treated control. The relative standard deviation of the result for the 0.1% DMSO treated control was <5%. […] ATP levels for treatment with lovastatin (10 μM) were <50% of the 0.1% DMSO treated control value.

[2] = test system: C2C12 cells; assay: Cell proliferation in C2C12 cells (Cyquant DNA dye binding); assay type: cell-based, mouse; settings: peptide 10 μM, 72 hours with readdition every 24 hours, relative to 0.1% DMSO control
Protocol: The effect of the peptides on cell proliferation was assessed using a DNA dye binding assay in cultured cells such as mouse myoblast cells. Peptides were initially prepared as 10 mM stock in DMSO, diluted to 1 mM in H2O, and added at a final concentration of 10 μM (0.1% DMSO). Lovastatin was used as a growth arrest control at final concentration of 10 μM. […] C2C12 cells were grown in DMEM supplemented with 20% FBS with 100 IU/ml penicillin and 100 μg/ml streptomycin. […] C2C12 cells were seeded at 800 cells per well on 96-well plates. […] Cell proliferation was determined using Cyquant Direct Nucleic Acid Stain (Thermo Fisher Scientific, Waltham, Mass.) according to the manufacturer's instructions. Fluorescence for each sample well on the plate was measured using a Cytation 3 plate reader at Ex/Em=495/535 nm (BioTek, Winooski, Vt.). Activity was calculated relative to 0.1% DMSO untreated control. The relative standard deviation for the lovastatin control was <27%. The cell proliferation for the lovastatin control was <25% of the value for untreated control.

[3] = test system: 3T3-L1 mouse adipocytes; assay: Free fatty acid levels in 3T3-L1 mouse adipocytes (Example 12, 10 μM); assay type: cell-based; settings: peptide 10 μM, 20-22 h then 3 h with isoproterenol 1 nM
Protocol: The effect of the peptides on fatty acid metabolism can be assessed using an assay of free fatty acid levels in cultured cells such as mouse adipocytes. Peptides were initially prepared as 10 mM stock in DMSO, diluted to 1 mM in H2O, and used at a final concentration of 10 μM (0.1% DMSO). […] Insulin at 100 nM was added to control wells.

[4] = test system: H4-IIE cells; assay: Glucose production in cultured H4-IIE cells and insulin dependence; assay type: cell-based, rat; settings: 24 h; for Glucose Production, Percent of Control Activity No Insulin: peptide 10 μM alone, relative to untreated cells; for Glucose Production, Percent of Control Activity With Insulin: peptide 10 μM with 800 μM insulin, relative to insulin treated cells
In short: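 Rat hepatoma cells incubated 24 h with peptides; glucose released into conditioned medium measured colorimetrically at 570 nm. Untreated cells serve as maximal-production reference, with insulin at […] as a modest inhibitor. Values are means of 2-4 independent experiments run in triplicate.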

[5] = test system: C2C12 cells; assay: Cellular ROS levels induced by TBHP in C2C12 cells (DCFDA); assay type: cell-based, mouse; settings: peptide 10 μM 18-20 hours, then TBHP 100 μM 1 hour; relative to TBHP control
Protocol: The protective or synergistic effect of the peptides on cellular levels of reactive oxygen species (ROS) induced by oxidative stress can be assessed using an assay of ROS in cultured cells such as mouse myoblasts exposed to a suitable oxidative stress. Peptides were initially prepared as 10 mM stock in DMSO, diluted to 1 mM in H2O, and added at a final concentration of 10 μM (0.1% DMSO). […] TBHP was used at final concentration of 100 μM. Sulforaphane at final concentration of 10 μM was used as a protective control against TBHP induced ROS production. […] C2C12 cells were grown in DMEM supplemented with 20% FBS with 100 IU/ml penicillin and 100 μg/ml streptomycin. […] C2C12 cells were seeded at 7,500 cells per well on 96-well plates. […] After 18-20 hours of incubation the cells were loaded with DCFDA for 45 min. TBHP at 100 μM was then added to the appropriate wells for 1 hour. ROS activity was determined using a DCFDA Cellular ROS Detection Assay kit (Abcam, Cambridge, Mass.) according to the manufacturer's instructions. Fluorescence in each sample well on the plate was measured using a Cytation 3 plate reader at Ex/Em=485/535 nm (BioTek, Winooski, Vt.). Activity was calculated relative to TBHP control. The relative standard deviation of the sulforaphane control was <20%. The ROS level produced by the sulforaphane control in the presence of TBHP was 52% of the TBHP control.

[6] = test system: C2C12 cells; assay: Caspase 3/7 activity in C2C12 cells; assay type: cell-based, mouse; settings: peptide 10 μM, 24 hours, relative to 0.1% DMSO control
Protocol: The effect of the peptides on cell death/survival can be assessed using a caspase-3/7 assay in cultured cells such as mouse myoblast cells. Peptides were initially prepared as 10 mM stock in DMSO, diluted to 1 mM in H2O, and used at a final concentration of 10 μM (0.1% DMSO). […] Staurosporine (Abcam, Cambridge, Mass.) was dissolved at 10 mM in DMSO as a stock solution. Caspase-Glo 3/7 Assay Reagent was purchased from Promega (Madison, Wis.). C2C12 cell line was purchased from American Type Culture Collection (Manassas, Va.). C2C12 cells were grown in DMEM supplemented with 20% FBS with 100 IU/ml penicillin and 100 μg/ml streptomycin. […] C2C12 cells were seeded at 4,000 cells per well on 96-well plates. […] Caspase 3/7 activity was determined using a Caspase-Glo 3/7 Assay kit according to the manufacturer's instructions. Luminescence for each sample well on the plate was measured using a Cytation 3 plate reader (BioTek, Winooski, Vt.). Activity was calculated relative to 0.1% DMSO control.

Compound | ATP Levels, Percent of Control Activity [1] | Cell Proliferation, Percent of Control [2] | Free Fatty Acid Levels, Percent of Isoproterenol Control Activity [3] | Glucose Production, Percent of Control Activity No Insulin [4] | Glucose Production, Percent of Control Activity With Insulin [4] | Cellular ROS Levels Induced by TBHP, Percent of Control [5] | Caspase 3/7 Activity, Percent of Control Activity [6]
13 (RRMMGMVFQELCG[dA]) [compound 13] | 102.8% | 90.0% | 66.0% | 100.9% | 68% | 106.8% | 99.0%
10 (RRMMGMVYQCLCG[dA]; cysteine pairing not given here) [compound 10] | 100.9% | 101.5% | 24.9% | 92.2% | 38.2% | 102.3% | 96.6%
19 (RRMVFQCLCG[dA]; cysteine pairing not given here) [compound 19] | 93.6% | 92.3% | 31.0% | 100.8% | 68.9% | 92% | 100.1%
16 (RRMMGMVFQCLSG[dA]) [compound 16] | 94.7% | 89.6% | 58.8% | 99.8% | 56.8% | 106.6% | 93.1%
14 (RRMMGMVFQCLEG[dA]) [compound 14] | 102.1% | 97.2% | 46.5% | 104.4% | 159.6% | 105.1% | 100.1%
8 (RRMMGMVFQCLCG[dA]; cysteine pairing not given here) [compound 8] | 99.5% | 98.1% | 34.7% | 78.9% | 102.8% | 102.1% | 97.6%
CSCC[C@H](NC(=O)CNC(=O)[C@H](CCSC)NC(=O)[C@H](CCSC)NC(=O)[C@H](CCCNC(=N)N)NC(=O)[C@H](CCCNC(=N)N)NC(=O)[C@@H](N)CCSC)C(=O)N[C@H](C(=O)N[C@@H](Cc1ccccc1)C(=O)N[C@@H](CCC(N)=O)C(=O)N[C@@H](CS)C(=O)N[C@@H](CC(C)C)C(=O)N[C@@H](CS)C(=O)NCC(=O)N[C@@H](CC(C)C)C(=O)O)C(C)C [compound 7] | 106.6% | 94.0% | 34.6% | 54.2% | 64.2% | 98.6% | 109.4%
18 (RRXXGXVFQCLCGA; (3)..(3) Xaa is Norleucine; (4)..(4) Xaa is Norleucine; (6)..(6) Xaa is Norleucine; (14)..(14) D-Ala) [compound 18] | 95.5% | 74.9% | 77.3% | 103.1% | 140.4% | 109.4% | 93.8%
11 (RRMMGMVAQCLCGA) [compound 11] | 98.0% | 88.1% | 59.2% | 96.6% | 57.5% | 100.6% | 99.1%
12 (RRMMGMVEQCLCG[dA]; cysteine pairing not given here) [compound 12] | 102.6% | 119.3% | 51.3% | 96.4% | 44.8% | 105% | 105.1%
17 (RRMMGMVFQSLSG[dA]) [compound 17] | 100.0% | 89.1% | 77.9% | 101.7% | 95.5% | 113.6% | 92.0%
CSCC[C@H](NC(=O)CNC(=O)[C@H](CCSC)NC(=O)[C@H](CCSC)NC(=O)[C@H](CCCNC(=N)N)NC(=O)[C@@H](N)CCCNC(=N)N)C(=O)N[C@H](C(=O)N[C@@H](Cc1ccccc1)C(=O)N[C@@H](CCC(N)=O)C(=O)N[C@@H](CO)C(=O)N[C@@H](CC(C)C)C(=O)N[C@@H](CS)C(=O)NCC(=O)N[C@H](C)C(=O)O)C(C)C [compound 15] | 100.4% | 93.5% | 90.8% | 101.4% | 63.9% | 105.9% | 101.6%
